Series [1] in a line: Hydrolysis of prodrug into acting drug (rebamipide) in whole blood of rat, HPLC. As to conditions: for half-life at 0.196 mg/mL: half life of conversion from prodrug to rebamipide, read-out: Conversion Time in Whole Rat Blood (t1/2). The series is classed as in vitro ADME. The protocol:
Frozen rat blood was thawed for about 1 hr in a 37° C. water bath and homogenized.
A stock solution was prepared by dissolving 10 mg of the compound of each Example in 1 mL of CAN. Optionally, a buffer (prepared by mixing 750 mL of a solution of Na2HPO4 0.58 g and KH2PO4 2 g in 1 L of H2O with 250 mL of CAN) was added. In a 4 mL tube, 40 μL of the stock solution was uniformly mixed with 2 mL of blood by shaking, followed by storage at 30 rpm in a water bath.
At 0, 2, 4, 6, 8, 10, 15, 30, 45, 60, 90, and 120 min after storage, a sample was taken in a volume of 200 μL, diluted in 400 μL of CAN, vortexed for 1 min, and centrifuged for 1 min. The supernatant was analyzed by HPLC (but, for the compound of Example 47, sampling was performed at 0, 1, 3, 5, 7, and 10 min after storage). In addition, measurement was made of the time that it took for the prodrugs to be converted into the acting drug (rebamipide).

For series [2] the following is noted: cited from earlier work.
For series [3] the following is noted: in vivo; cited from earlier work.
For series [4] the following is noted: due to low solubility and low intestinal permeability; cited from earlier work.
Series [5] has as its system acetic acid-induced gastric ulcers. As to conditions: rats; cited from earlier work.

“Also recorded” adds a separate entry of the source. Read-outs that look alike come from different tables or passages of the source. Bounds are passed on as bounds.

With `CCN(CC)CCOC(=O)C(Cc1cc(=O)[nH]c2ccccc12)NC(=O)c1ccc(Cl)cc1` (stereo not drawn) [Example 16, 2-Diethylaminoethyl 2-(4-chlorobenzoylamino)-3-(2-oxo-1,2-dihydroquinolin-4-yl)propionate], in series [1], the half-life at 0.196 mg/mL was less than 2 min.

As to `CN(C)CCOC(=O)C(Cc1cc(=O)[nH]c2ccccc12)NC(=O)c1ccc(Cl)cc1` (stereo not drawn) [Example 14, 2-Dimethylaminoethyl 2-(4-chlorobenzoylamino)-3-(2-oxo-1,2-dihydroquinolin-4-yl)propionate], the half-life at 0.196 mg/mL in series [1] was less than 2 min. For `O=C(OCCN1CCOCC1)OCOC(=O)C(Cc1cc(=O)[nH]c2ccccc12)NC(=O)c1ccc(Cl)cc1` (stereo not drawn) [Example 109, 2-Morpholin-4-yl-ethoxycarbonyloxymethyl 2-(4-chlorobenzoylamino)-3-(2-oxo-1,2-dihydroquinolin-4-yl)propionate], the half-life at 0.196 mg/mL in series [1] was less than 2 min. On to `O=C(NC(Cc1cc(=O)[nH]c2ccccc12)C(=O)OCCN1CCOCC1)c1ccc(Cl)cc1` (stereo not drawn) [Example 47, 2-Morpholin-4-ylethyl 2-(4-chlorobenzoylamino)-3-(2-oxo-1,2-dihydroquinolin-4-yl)propionate], for which the “time to complete conversion into rebamipide” value in series [1] (FIG. 1) is given as “about 10 min”. In series [1], the half-life at 0.196 mg/mL amounted to 2.57 min. Take `O=C(NC(Cc1cc(=O)[nH]c2ccccc12)C(=O)O)c1ccc(Cl)cc1` (stereo not drawn) [Rebamipide]: the aqueous solubility entry is “approximately 0.0001 % (w/v)” in series [2] (pH 3) and “approximately 0.013 % (w/v)” in series [2] (pH 7). The “solubility in solvents (in words)” value in series [2] (solvent named in the value) is “freely soluble in dimethylformamide; also recorded: slightly soluble in methanol and ethanol; also recorded: almost insoluble in ether and water”. The bioavailability result in series [3] is “around 5%”. In series [4], the BCS class result is on record as “Class IV”. In series [5], the “effect on ulcer size, relapse rate and cure rate” value was “reduces sizes and relapse rates of the ulcer while improving the cure rate”. For `CCN(CC)CCSC(=O)C(Cc1cc(=O)[nH]c2ccccc12)NC(=O)c1ccc(Cl)cc1` (stereo not drawn) [Example 121, S-(2-Diethylamino)ethyl 2-(4-chlorobenzoylamino)-3-(2-oxo-1,2-dihydroquinolin-4-yl)thiopropionate], the half-life at 0.196 mg/mL in series [1] was less than 2 min. Regarding `Cc1oc(=O)oc1CSC(=O)C(Cc1cc(=O)[nH]c2ccccc12)NC(=O)c1ccc(Cl)cc1` (stereo not drawn) [Example 155, S-(5-Methyl-2-oxo-[1,3]dioxol-4-yl)methyl 2-(4-chlorobenzoylamino)-3-(2-oxo-1,2-dihydroquinolin-4-yl)thiopropionate], the half-life at 0.196 mg/mL in series [1] is less than 2 min.

Turning to `O=C(NC(Cc1cc(=O)[nH]c2ccccc12)C(=O)OCCN1CCCCC1)c1ccc(Cl)cc1` (stereo not drawn) [Example 44, 2-Piperidin-1-ylethyl 2-(4-chlorobenzoylamino)-3-(2-oxo-1,2-dihydroquinolin-4-yl)propionate], the half-life at 0.196 mg/mL in series [1] was less than 2 min. For the molecule `O=C(COC(=O)C(Cc1cc(=O)[nH]c2ccccc12)NC(=O)c1ccc(Cl)cc1)OCCN1CCOCC1` (stereo not drawn) [Example 105, 2-Morpholin-4-yl-ethoxycarbonylmethyl 2-(4-chlorobenzoylamino)-3-(2-oxo-1,2-dihydroquinolin-4-yl)propionate], the half-life at 0.196 mg/mL in series [1] was less than 2 min. On the same count and under the same terms, the result for `O=C(NC(Cc1cc(=O)[nH]c2ccccc12)C(=O)SCCN1CCOCC1)c1ccc(Cl)cc1` (stereo not drawn) [Example 151, S-(2-Morpholin-4-yl)ethyl 2-(4-chlorobenzoylamino)-3-(2-oxo-1,2-dihydroquinolin-4-yl)propionate] reads less than 2 min; that for `CON(C)C(=O)COC(=O)C(Cc1cc(=O)[nH]c2ccccc12)NC(=O)c1ccc(Cl)cc1` (stereo not drawn) [Example 102, (Methoxymethylcarbamoyl)methyl 2-(4-chlorobenzoylamino)-3-(2-oxo-1,2-dihydroquinolin-4-yl)propionate], less than 2 min. Still for that read-out and setting: next, `CCC(OC(=O)C(Cc1cc(=O)[nH]c2ccccc12)NC(=O)c1ccc(Cl)cc1)C(=O)OCCN1CCOCC1` (stereo not drawn) [Example 106, 2-Morpholin-4-ylethyl 2-[2-(4-chlorobenzoylamino)-3-(2-oxo-1,2-dihydroquinolin-4-yl)propionyloxy]butyrate]: less than 2 min. On the same count and under the same terms, next, `CN1CCN(C(=O)COC(=O)C(Cc2cc(=O)[nH]c3ccccc23)NC(=O)c2ccc(Cl)cc2)CC1` (stereo not drawn) [Example 99, 2-(4-Methylpiperazin-1-yl)-2-oxoethyl 2-(4-chlorobenzoylamino)-3-(2-oxo-1,2-dihydroquinolin-4-yl)propionate]: less than 2 min. For `CCC(OC(=O)C(Cc1cc(=O)[nH]c2ccccc12)NC(=O)c1ccc(Cl)cc1)C(=O)N1CCN(C)CC1` (stereo not drawn) [Example 100, 1-(4-Methylpiperazine-1-carbonyl)propyl 2-(4-chlorobenzoylamino)-3-(2-oxo-1,2-dihydroquinolin-4-yl)propionate], the half-life at 0.196 mg/mL in series [1] was less than 2 min. Regarding `O=C(NC(Cc1cc(=O)[nH]c2ccccc12)C(=O)SCCN1CCCC1)c1ccc(Cl)cc1` (stereo not drawn) [Example 144, S-(2-Pyrrolidin-1-yl)ethyl 2-(4-chlorobenzoylamino)-3-(2-oxo-1,2-dihydroquinolin-4-yl)thiopropionate], in series [1], the half-life at 0.196 mg/mL was less than 2 min.

(Values after patent US11420963B2, “Rebamipide prodrugs, preparation method and use thereof” (SAMJIN PHARMACEUTICAL CO., LTD., priority 2012, dated 2022).)
